Assay results: PubChem BioAssay AID720513 (Broad Institute, 2013)
Results filed as inconclusive are left out.

What follows are compounds tested on U2OS PGC1a acetylation AlphaLISA, overnight (assay: PGC1a acetylation increase, cellular AlphaLISA – cell-based, cherry-picked samples, set 6, dose response (AID 720513);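 also: cells made to overexpress flag tagged PGC1a plus GCN5 acetyltransferase by viral infection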).

Point of comparison: `COc1ccc(CN2CCn3ncc(C(=O)Nc4ccccc4)c3C2=O)cc1`, AC40 13.4 µM. Against it:
- C[C@@H]1CN([C@H](C)CO)C(=O)c2c(c3ccccc3n2C)-c2ccccc2CO[C@@H]1CN(C)C(=O)Nc1ccc2c(c1)OCO2 — within 1.5-fold, 10.7 µM
- OCc1ccc2c(c1)c(-c1ccc3c(c1)OCCO3)c(-c1ccccc1)n2-c1ccccc1 — 73-fold lower, 0.184 µM
- Cc1cccc(Nc2nnc(-c3ccc(C(=O)N4C[C@H]5C[C@H](C4)c4cccc(=O)n4C5)cc3)c3ccccc23)c1 — within 1.5-fold, 11.2 µM
- O=C(Nc1cccnc1)c1ccc(Br)s1 — 22-fold lower, 0.601 µM
- COc1ccc(Br)cc1CNc1ccccc1 — within 1.5-fold, 8.98 µM
- COc1ccc2c(c1)C(C)=CC(C)(C)N2S(=O)(=O)c1ccc(Br)cc1 — 5-fold lower, 2.69 µM
- O=C(CCCn1c(=O)[nH]c2cc(Cl)ccc2c1=O)NCCC1=CCCCC1 — 36-fold lower, 0.371 µM
- Cc1csc(NC(=O)CSc2nsc(SCC(=O)Nc3nc(C)cs3)c2C#N)n1 — 3.1-fold lower, 4.36 µM
- O=C(NCc1cccs1)C1Cc2c(-c3ccc(Cl)cc3)ccnc2O1 (stereo not drawn) — 1.5-fold lower, 8.86 µM
- CCOC(=O)c1sc2nc(C)nc(NCc3ccccc3OC)c2c1C — 4.3-fold lower, 3.12 µM
- CO[C@@H](C(=O)N(C)C[C@H]1OCc2ccccc2-c2c(n(C)c3ccccc23)C(=O)N([C@H](C)CO)C[C@H]1C)c1ccccc1 — 1.6-fold lower, 8.25 µM
- C[C@H]1CN([C@@H](C)CO)C(=O)c2cccc(NC(=O)c3cnccn3)c2O[C@H]1CN(C)Cc1ccc(C(=O)Nc2ccccc2N)cc1 — lower, < 2.6 µM
- COc1ccc(Cc2nc(-c3ccc(NC(=O)c4cccnc4)cc3)no2)cc1 — 14-fold lower, 0.991 µM
- CC(C)(C)C(=O)Nc1sc2c(c1-c1nc3ccccc3[nH]1)CCCC2 — within 1.5-fold, 18.4 µM
- O=C1C=C(c2cc3ccccc3s2)CCC1 — 3.6-fold lower, 3.77 µM
- C[C@@H]1CN([C@@H](C)CO)C(=O)c2c(c3ccccc3n2C)-c2ccccc2CO[C@@H]1CN(C)C(=O)Nc1ccccc1C(F)(F)F — 1.9-fold lower, 6.99 µM
- Cc1ccc(Cl)cc1NC(=O)Cn1nc(-c2cccs2)ccc1=O — 3.3-fold lower, 4.08 µM
- CN1c2ccccc2C2(C)CCCC3=Cc4cccc([N+](=O)[O-])c4OC312 (stereo not drawn) — 28-fold lower, 0.48 µM
- COC(=O)C(Nc1ccccc1Cl)(c1cc(C)c(O)c(C)c1)C(F)(F)F (stereo not drawn) — 21-fold lower, 0.641 µM
- CCC(C)(C)n1nnnc1CN(Cc1ccc(Cl)cc1)Cc1ccco1 — 9.6-fold lower, 1.39 µM
- COc1ccc(-c2c(-c3cc(OC)cc(OC)c3)n(C)c3ccc(-c4cnc(N)nc4)cc23)cc1 — 14-fold lower, 0.974 µM
- Oc1ccc(Nc2nnc(-c3ccc(O)cc3)c3ccccc23)cc1 — 8.5-fold lower, 1.57 µM
- O=C(c1ccccc1)C(O)(Cc1ccccc1)c1ccccc1 (stereo not drawn) — 15-fold lower, 0.901 µM
- CC(=O)Nc1sc2c(c1-c1nc3ccccc3s1)CN(C(C)C)CC2 — 9.2-fold lower, 1.45 µM
- COCCN(C)Cc1nc(C(c2ccccc2)c2ccccc2)no1 — within 1.5-fold, 9.12 µM
- CNC(=O)c1cccn(Cc2ccc(C(F)(F)F)cc2)c1=O — within 1.5-fold, 17.5 µM
- O=C(CN1CCC(n2nnc3ccccc32)CC1)NCc1cccs1 — 8-fold lower, 1.67 µM
- COc1ccc(C(=O)NN(C)c2nc(-c3ccccc3)cc(C)c2S(C)(=O)=O)cc1 — within 1.5-fold, 19 µM
- CC1(C)CCCN(C(=O)N2c3ccccc3Sc3ccccc32)C1 — 10-fold lower, 1.33 µM
- O=c1[nH]nc(SCCS(=O)(=O)c2ccc(F)cc2)n1-c1ccccc1 — within 1.5-fold, 15.2 µM
- CC1(C)OC(C)(C)/C(=C\c2ccc(OCC(N)=O)cc2)C1=O — 2-fold lower, 6.64 µM
- O=C(Nc1cnc2ccccc2c1)c1cccnc1 — 21-fold lower, 0.651 µM
- CCO[C@H]1OC(C(=O)N2CCCCCCC2)=C[C@@H](C2CCCCC2)[C@@H]1CCCO — 6.8-fold lower, 1.96 µM
- Cc1ccc(OCC(=O)NCCCNC(=O)c2cccnc2)cc1C — 6.4-fold lower, 2.1 µM
- C[C@H](CO)N1C[C@H](C)[C@@H](CN(C)Cc2ccc3c(c2)OCO3)Oc2cc(Br)ccc2S1(=O)=O — within 1.5-fold, 18.6 µM
- COc1ccc(N(C(=O)c2snc(C(N)=O)c2N)C(C(=O)NC2CCCC2)c2ccco2)c(OC)c1 (stereo not drawn) — 3.5-fold lower, 3.85 µM
- COc1ccc2nc3c(cc2c1)c(NC(=O)c1cccs1)nn3CC(C)C — 2.5-fold lower, 5.35 µM
- COC(=O)C[C@H]1c2cc(C(F)(F)F)ccc2S(=O)(=O)N1Cc1ccc(OC)cc1 — 2.6-fold lower, 5.25 µM
- O=C(Nc1ccccc1)C1=C[C@@H](c2ccc(C(F)(F)F)cc2)C[C@@H](OCc2ccc(CO)cc2)O1 — lower, < 2.6 µM
- CCOC(=O)C1=C[C@@H](C(C)C)N(S(=O)(=O)c2ccc(C)cc2)[C@H]1c1ccc(C(F)(F)F)cc1 — 5.1-fold lower, 2.64 µM
- CCOC(=O)c1ccccc1NS(=O)(=O)c1ccc(OCC)cc1 — 4.1-fold lower, 3.3 µM
- COc1ccc(C(c2nnnn2C2CCCC2)N2CCC(C)CC2)c(OC)c1 (stereo not drawn) — 7.2-fold lower, 1.86 µM
- Cc1c(C(=O)OCC(=O)c2c(N)n(CC(C)C)c(=O)n(C)c2=O)oc2ccccc12 — 1.6-fold lower, 8.24 µM
- C=CCn1c(=NC(=O)c2ccc(S(=O)(=O)N3CCCC3)cc2)sc2cc(NC(C)=O)ccc21 — within 1.5-fold, 12.3 µM
- c1ccc(C(c2nnnn2Cc2cccs2)N2CCN(C3CCCC3)CC2)cc1 (stereo not drawn) — 28-fold lower, 0.483 µM
- Cc1ccc(S(=O)(=O)CCSC(=N)N)cc1 — 2.6-fold lower, 5.17 µM
- CCCCSc1ccc(NC(=O)c2cccnc2)cc1 — 7.5-fold lower, 1.78 µM
- COc1cc(CN2CCCC(CO)(Cc3cccc(Cl)c3)C2)cc2c1OCO2 (stereo not drawn) — 1.6-fold lower, 8.62 µM
- COc1cccc(C(=O)/C=C/c2ccc(OCC#N)c(OC)c2)c1 — 2-fold lower, 6.74 µM
- COc1ccc(S(=O)(=O)N2CC[C@@H]3[C@H](CO)Nc4ccc(-c5ccccc5F)cc4[C@@H]32)cc1 — within 1.5-fold, 12.4 µM
- COc1cccc(S(=O)(=O)N(C)C[C@@H]2Oc3cc(C4=CCCC4)ccc3S(=O)(=O)N([C@H](C)CO)C[C@@H]2C)c1 — within 1.5-fold, 13 µM
- COC(=O)c1ccc2[nH]c3cccc(/C(=C/c4ccccc4)c4ccccc4)c3c2c1 — 3.7-fold lower, 3.62 µM
- Cc1cc(C)c(S(=O)(=O)Nc2ccccc2-c2ccccc2)c(C)c1 — 3.4-fold lower, 3.95 µM
- O=C(Cc1ccccc1)Nc1cccc(-c2nc3ncccc3o2)c1 — 4.9-fold lower, 2.71 µM
- CC(=O)Nc1ccc(Nc2ncnc3c2cnn3-c2ccc(C)cc2C)cc1 — 5.3-fold lower, 2.53 µM
- CCC(CC)C(=O)c1c[nH]c(C(=O)NCc2ccccc2)c1 — 19-fold lower, 0.689 µM
- COc1ccc(C(c2nnnn2C2CCCCC2)N2CCC3(CC2)C(=O)NCN3c2ccccc2)cc1 (stereo not drawn) — 3.9-fold lower, 3.46 µM
- COc1ccccc1-c1ccc(C2[C@@H]3CN(S(=O)(=O)c4ccc(C)cc4)C[C@H]2N3)cc1 (stereo partly drawn) — within 1.5-fold, 19.7 µM
- CC1(C)CC(=O)C2=C(C1)Nc1ccccc1N1C(=O)c3ccccc3C21 (stereo not drawn) — 6.2-fold lower, 2.15 µM
- O=C(Nc1ccc2c(c1)OCO2)C1CCN(c2ccc(S(=O)(=O)N3CCOCC3)cc2)CC1 — within 1.5-fold, 9.15 µM
- Cc1c(C(=O)N2CCN(c3ccccn3)CC2)sc2ncnc(N3CCN(c4ccccc4)CC3)c12 — within 1.5-fold, 10.9 µM
- COc1cc(-c2nnn(CC#N)n2)ccc1OCc1ccccc1 — 45-fold lower, 0.296 µM
- COc1ccc(C2N(S(=O)(=O)c3ccccc3)CCN2S(=O)(=O)c2ccc(C)cc2)cc1 (stereo not drawn) — 2-fold lower, 6.61 µM
- COc1ccc(CC(=O)OCC(=O)NCc2ccco2)cc1 — within 1.5-fold, 9.28 µM
- Clc1ccc(-c2nnc(-c3ccccc3)nc2N2CCSCC2)cc1 — within 1.5-fold, 17.7 µM
- O=C(NCc1cccnc1)c1ccc(NC(=O)c2ccc(Br)cc2)cc1 — lower, < 0.16 µM
- CC(Oc1ccc(Cl)cc1Cl)c1nc(-c2ccc(NC(=O)c3cccnc3)cc2)no1 (stereo not drawn) — 23-fold lower, 0.581 µM
- Cc1ccc(-n2cccn2)c(CN2CCCC(C(=O)c3sccc3C)C2)c1 (stereo not drawn) — within 1.5-fold, 9.08 µM
- Cc1cccc(C)c1-n1nnnc1C(c1cccs1)N1CCC(n2c(=O)[nH]c3ccccc32)CC1 (stereo not drawn) — 2.3-fold lower, 5.87 µM
- N#Cc1ccc(Oc2cccnc2)cc1C#N — 2.2-fold lower, 6.09 µM
- O=C(NCc1ccco1)c1scc2c1OCCO2 — within 1.5-fold, 12.3 µM
- Cn1cc(-c2ccc(C(=O)NCc3cccc(Cl)c3)c3occc23)cn1 — 2.8-fold lower, 4.85 µM
- CCCCn1c(CN(Cc2ccccc2)Cc2ccccc2)nc2c1c(=O)n(C)c(=O)n2C — 3.5-fold lower, 3.88 µM
- COc1ccc(-n2c(=O)c3c4c(sc3n3c(=S)[nH]nc23)CCC4)cc1 — 24-fold lower, 0.563 µM
- CC(C)(C)c1ccc(C(=O)c2c[nH]c(C(=O)NCc3cccnc3)c2)cc1 — 11-fold lower, 1.23 µM
- CCn1c(=S)[nH]c2cc(S(=O)(=O)N3CCCCC3)ccc21 — 8.3-fold lower, 1.62 µM
- O=C1NCN(c2ccccc2)C12CCN(C(c1cccc3ccccc13)c1nnnn1C1CCCCC1)CC2 (stereo not drawn) — 2.5-fold lower, 5.43 µM
- N#Cc1ccc(C(=O)CSc2nnc(-c3ccc(C(F)(F)F)cn3)s2)cc1 — within 1.5-fold, 17.8 µM
- CCOc1ccc(Nc2oc(-c3ccc(Cl)cc3)nc2C#N)cc1 — 4.3-fold lower, 3.09 µM
- CCOc1ccccc1N(C)C(=O)C1CCN(S(=O)(=O)c2cccc3nonc23)CC1 — 4.1-fold lower, 3.29 µM
- COc1cc2nc(SCc3c(C)noc3C)n(CCC3=CCCCC3)c(=O)c2cc1OC — 5.3-fold lower, 2.51 µM
- O=C(/C=C/Sc1ncn[nH]1)c1ccc(Cl)cc1 — 34-fold lower, 0.395 µM
- COc1ccc([N+](=O)[O-])cc1NCc1ccccc1 — 4.5-fold lower, 2.95 µM
- O=C(Nc1cccc(C(F)(F)F)c1)c1sc(Cl)nc1C(F)(F)F — 4.5-fold lower, 3.01 µM
- Nc1ccccc1Oc1ncc(C(F)(F)F)cc1Cl — 1.9-fold lower, 7.04 µM
- O=C(Nc1ccc(Nc2ccncc2)cc1)c1ccc([N+](=O)[O-])cc1 — 3.9-fold lower, 3.4 µM
- Cc1ccc(-c2nnc(Nc3ccc4c(c3)OCO4)c3ccccc23)cc1S(=O)(=O)NCCO — 6.4-fold lower, 2.08 µM
- O=C(COc1ccc(Cl)cc1)NCCCNC(=O)c1cccnc1 — 11-fold lower, 1.22 µM
- O=C(Cc1ccccc1)Nc1ccc(NC(=O)c2ccco2)nc1 — 9.3-fold lower, 1.44 µM
- COc1ccc(CNc2ccc(-c3ccc(OC)cc3)nn2)cc1 — 9.1-fold lower, 1.47 µM
- COc1ccc(C#Cc2cnc3c(c2)C(=O)N([C@H](C)CO)C[C@H](C)[C@H](CN(C)S(=O)(=O)c2cccc(F)c2)O3)cc1OC — within 1.5-fold, 18.8 µM
- C[C@@H]1CN([C@H](C)CO)C(=O)c2c(c3ccccc3n2C)-c2ccccc2CO[C@@H]1CN(C)C(=O)Nc1cccc(C(F)(F)F)c1 — within 1.5-fold, 10.5 µM
- C[C@@H]1CN([C@@H](C)CO)C(=O)c2c(c3ccccc3n2C)-c2ccccc2CO[C@@H]1CN(C)C(=O)Nc1ccc(F)cc1 — 1.7-fold lower, 7.76 µM
- CCOC(=O)c1c(CN2CCN(CC#N)CC2)n(C)c2cc(Br)c(OC)cc12 — 19-fold lower, 0.701 µM
- CCOC(=O)C(NC(=O)c1ccccc1OCC)(Nc1ncccn1)C(F)(F)F (stereo not drawn) — 10-fold lower, 1.32 µM
- C[C@@H]1CN([C@H](C)CO)C(=O)c2cc(N(C)C)ccc2O[C@@H](C)CCCCO[C@H]1CN(C)C(=O)Cc1ccccc1 — 2.4-fold lower, 5.69 µM
- COc1ccc(C(CNC(=O)c2cccc(N(C)C)c2)N2CCCC2)cc1 (stereo not drawn) — 2.5-fold lower, 5.4 µM
- COc1cccc(CN2C[C@@H]3N[C@H](C2)C3c2ccc(-c3ccccc3F)cc2)c1 (stereo partly drawn) — within 1.5-fold, 16.3 µM
- Cc1cc(C)c2c(-n3cccc3)c(C(=O)NNS(=O)(=O)c3ccccc3)sc2n1 — 2.8-fold lower, 4.82 µM
- O=C(Cc1ccccc1)N1CCN(c2ccc([N+](=O)[O-])cc2)CC1 — 26-fold lower, 0.523 µM
- Cc1ccc(NC(=O)CN2CCC(NC(=O)Cc3ccccc3)CC2)c(C)c1 — 26-fold lower, 0.507 µM
- C=C/C=C/[C@@H]1C(=C)CN2[C@H]1[C@H](Cc1ccccc1)OC(=O)[C@@H]2Cc1ccccc1 — within 1.5-fold, 11.6 µM
